The nature of series [1]: HPLC-MS/MS quantification of 9 compounds in plasma of RSV-infected mice after Scutellaria baicalensis Georgi administration. It is filed as in vivo, BALB/c mice. Further details: drug-containing plasma content: unit not given here. As to the method:
The study employed a Vanquish high-performance liquid chromatograph for chromatographic separation, with a HALO C18 column (2.1 × 100 mm, 2.7 μm) as the chromatographic column.
Mass spectrometry was performed using a quadrupole-electrostatic field orbitrap desktop mass spectrometer equipped with an electrospray ion source (ESI). The ESI parameters were set as follows: the pyrolysis voltage was 3.0 kV, the auxiliary gas flow rate was 10 mL/min, the ion transport tube temperature was 350 °C, the auxiliary gas temperature was 350 °C, and the sheath gas flow rate was 45 L/min. Quantitative analysis was performed using the selective ion detection (SIM) mode (Table S1).
Male BALB/c mice, aged 2 weeks and weighing 10–12 g, were chosen for this study. They were acclimatized for 2 days and then randomly assigned to one of five groups: blank (C), model (M), positive control ribavirin (Y1), positive control lianhua qingwen granules (Y2), and Scutellaria baicalensis Georgi administration (H1-H12). Each group consisted of six mice, and their weights were recorded. The mice were pre-administered for 2 days, and on the third day, RSV virus (TCID50 = 10^−6) was inoculated through intranasal infection at a volume of 35 μL per mouse. The blank group was inoculated with normal saline of the same volume. After the inoculation of the RSV virus, the blank and model groups were given distilled water by gavage, while the drug-administered groups were given an aqueous extract of Scutellaria baicalensis Georgi (10 µL/g) once a day for 3 days. The mice were observed daily for their mental status, hair color, diet, and body weight. […] It was then centrifuged at 3000 r/min for 10 min, and the upper layer of plasma was stored at −80℃. Lung tissues were weighed, the lung index was calculated, and the lung tissues were stored in the refrigerator at −80 °C for freezing.
The plasma sample (200 μL) was processed in a 5 mL tube. Subsequently, 10 μL of 5% formic acid and 20 μL of 2 mol/L hydrochloric acid were added, followed by vortexing for 1 min with 10 μL of internal standard solution (100 ng/mL tinidazole). The extraction was completed by adding 2000 μL of acetonitrile solvent and vortexing for 2 min. The mixture was then centrifuged at 12,000 r/min at 4 °C for 10 min, and the supernatant solution was collected in a new centrifuge tube. The supernatant solution was dried by nitrogen at room temperature before being redissolved in 50 μL of 70% acetonitrile solution containing 0.1% formic acid. After vortexing for 1 min, the solution was centrifuged at 12,000 r/min at 4 °C for 10 min, and the resulting supernatant was injected for analysis. The injection volume was 3 μL.
The drug-containing plasma at different time points was subjected to sample treatment. The HPLC-MS/MS analysis method was used to quantitatively detect the 9 compounds in the ion detection (SIM) mode. According to the relative peak area value = index peak area/internal standard peak area, the corresponding concentration value was calculated by substituting the standard curve of each component.

Series [2] is described as follows: Stability of 9 compounds in mouse plasma under storage conditions. The format is in vitro ADME. The conditions noted are these: n = 6; for Stability 3-Freeze-Thaw Cycles RE: 3 times repeated freeze-thaw at −80 °C; for Stability Short-Term RE: 12 h at 4 °C; for Stability Long-Term RE: −20 °C for 20 days.
The mark [3] stands for this setting: male, BALB/c, mouse, in vivo, 0.083 h.
The mark [4] stands for this setting: male, BALB/c, mouse, in vivo, 0.167 h.
Where [5] appears, read: male, BALB/c, mouse, in vivo, 0.25 h.
[6] abbreviates: male, BALB/c, mouse, in vivo, 0.5 h.
[7] abbreviates: male, BALB/c, mouse, in vivo, 1 h.
Setting [8] is: male, BALB/c, mouse, in vivo, 2 h.
[9] abbreviates: male, BALB/c, mouse, in vivo, 4 h.
Where [10] appears, read: male, BALB/c, mouse, in vivo, 6 h.
The mark [11] stands for this setting: male, BALB/c, mouse, in vivo, 8 h.
Setting [12] is: male, BALB/c, mouse, in vivo, 10 h.
Setting [13] is: male, BALB/c, mouse, in vivo, 12 h.
Setting [14] is: male, BALB/c, mouse, in vivo, 24 h.
Where [15] appears, read: high QC (20,000 or 10,000 ng/mL).
The mark [16] stands for this setting: RSV-infected mice after Scutellaria baicalensis Georgi administration, double peak phenomenon.
Setting [17] is: RSV-infected mice, 0.083 h after last gavage of Scutellaria baicalensis Georgi extract, mean ± SD, n = 6.
The mark [18] stands for this setting: RSV-infected mice, 0.167 h after last gavage of Scutellaria baicalensis Georgi extract, mean ± SD, n = 6.
Setting [19] is: RSV-infected mice, 0.25 h after last gavage of Scutellaria baicalensis Georgi extract, mean ± SD, n = 6.
Setting [20] is: RSV-infected mice, 0.5 h after last gavage of Scutellaria baicalensis Georgi extract, mean ± SD, n = 6.
Where [21] appears, read: RSV-infected mice, 1 h after last gavage of Scutellaria baicalensis Georgi extract, mean ± SD, n = 6.
Where [22] appears, read: RSV-infected mice, 2 h after last gavage of Scutellaria baicalensis Georgi extract, mean ± SD, n = 6.
Setting [23] is: RSV-infected mice, 4 h after last gavage of Scutellaria baicalensis Georgi extract, mean ± SD, n = 6.
Where [24] appears, read: RSV-infected mice, 6 h after last gavage of Scutellaria baicalensis Georgi extract, mean ± SD, n = 6.
[25] abbreviates: RSV-infected mice, 8 h after last gavage of Scutellaria baicalensis Georgi extract, mean ± SD, n = 6.
[26] abbreviates: RSV-infected mice, 10 h after last gavage of Scutellaria baicalensis Georgi extract, mean ± SD, n = 6.
The mark [27] stands for this setting: RSV-infected mice, 12 h after last gavage of Scutellaria baicalensis Georgi extract, mean ± SD, n = 6.
The mark [28] stands for this setting: RSV-infected mice, 24 h after last gavage of Scutellaria baicalensis Georgi extract, mean ± SD, n = 6.

In the case of `O=C(O)[C@H]1O[C@@H](Oc2cc(O)c3c(=O)cc(-c4ccc(O)cc4)oc3c2)[C@H](O)[C@@H](O)[C@@H]1O` [Apigenin-7-glucuronide], in series [1] (male, BALB/c, mouse, in vivo), the “time of highest plasma concentration, first peak” value (from here on “time … first peak”) is 0.167 h. In series [1] (male, BALB/c, mouse, in vivo), the “time of highest plasma concentration, second peak” value (“time … second peak” below) is reported as 6 h. The drug-containing plasma content in series [1] (setting [3]) was determined as 4725.60± 214.70; in series [1] (setting [4]), 6986.86± 153.57; in series [1] (setting [5]), 4610.60± 192.08; in series [1] (setting [6]), 4344.98± 173.73; in series [1] (setting [7]) it was 1590.11± 125.69; in series [1] (setting [8]) it was 2934.42± 221.23. In addition, the drug-containing plasma content in series [1] (setting [9]) is on record as 1037.07± 106.48; in series [1] (setting [10]), 9344.98± 327.73; in series [1] (setting [11]) it was 2958.20± 207.61; in series [1] (setting [12]), 896.04± 55.63; in series [1] (setting [13]), 47.32± 11.82; in series [1] (setting [14]), 23.55± 2.60. The “Stability 3-Freeze-Thaw Cycles RE” value is recorded as 8.37% in series [2] (setting [15]), −2.43% in series [2] (low QC (12.5 or 25.6 ng/mL)) and −0.72% in series [2] (medium QC (320 or 160 ng/mL)). For the same molecule, the “Stability Short-Term RE” value was 8.60% in series [2] (setting [15]), −3.20% in series [2] (low QC (12.5 or 25.6 ng/mL)) and −2.08% in series [2] (medium QC (320 or 160 ng/mL)). Also, the “Stability Long-Term RE” value in series [2] (setting [15]) was 9.80%; in series [2] (low QC (12.5 or 25.6 ng/mL)), −3.16%; in series [2] (medium QC (320 or 160 ng/mL)) it was −1.48%.
As for `O=c1cc(-c2ccccc2)oc2cc(O)c(O)c(O)c12` [Baicalein], the “time … first peak” value in series [1] (setting [16]) turned out to be 0.167 h. Moreover, the “time … second peak” value in series [1] (setting [16]) is on record as 6 h. Besides, the drug-containing plasma content was 235.76± 21.97 in series [1] (setting [3]); 573.93± 23.68 in series [1] (setting [4]); 437.59± 15.17 in series [1] (setting [5]); 243.84± 16.32 in series [1] (setting [6]); 208.98± 14.58 in series [1] (setting [7]); 25.73± 5.59 in series [1] (setting [8]). Besides, the drug-containing plasma content came to 43.00± 8.66 in series [1] (setting [9]); 792.15± 41.3 in series [1] (setting [10]); 184.80± 29.24 in series [1] (setting [11]); 120.93± 15.03 in series [1] (setting [12]); 9.28± 5.01 in series [1] (setting [13]); 1.42± 5.86 in series [1] (setting [14]).
For `O=C(O)[C@H]1O[C@@H](Oc2cc3oc(-c4ccccc4)cc(=O)c3c(O)c2O)[C@H](O)[C@@H](O)[C@@H]1O` [Baicalin], in series [1] (setting [16]), the “time … first peak” value is 0.167 h. Further, the “time … second peak” value in series [1] (setting [16]) is listed as 6 h. The drug-containing plasma content in series [1] (setting [3]) came to 2434.28± 151.56; in series [1] (setting [4]), 4607.45± 318.09; in series [1] (setting [5]), 2031.56± 103.57; in series [1] (setting [6]) it was 2696.64± 110.33; in series [1] (setting [7]), 2474.37± 225.92; in series [1] (setting [8]), 2620.76± 117.82. For the same molecule, the drug-containing plasma content is given as 1587.10± 169.68 in series [1] (setting [9]); 8607.45± 428.09 in series [1] (setting [10]); 1856.98± 113.03 in series [1] (setting [11]); 569.32± 20.22 in series [1] (setting [12]); 39.89± 7.45 in series [1] (setting [13]); 15.44± 5.62 in series [1] (setting [14]). The “Stability 3-Freeze-Thaw Cycles RE” value is recorded as 7.69% in series [2] (setting [15]), −7.38% in series [2] (low QC (12.5 or 25.6 ng/mL)) and −2.37% in series [2] (medium QC (320 or 160 ng/mL)). The “Stability Short-Term RE” value is 5.73% in series [2] (setting [15]), −9.16% in series [2] (low QC (12.5 or 25.6 ng/mL)) and −5.85% in series [2] (medium QC (320 or 160 ng/mL)). The “Stability Long-Term RE” value in series [2] (setting [15]) is 5.87%; in series [2] (low QC (12.5 or 25.6 ng/mL)), −8.15%; in series [2] (medium QC (320 or 160 ng/mL)) it was −5.21%.
In the case of `O=c1cc(-c2ccccc2)oc2cc(O)cc(O)c12` [Chrysin], the drug-containing plasma content in series [1] (setting [17]) was 0; in series [1] (setting [18]), 0; in series [1] (setting [19]), 0; in series [1] (setting [20]), 10.37± 2.12; in series [1] (setting [21]), 15.38± 4.94; in series [1] (setting [22]) it was 21.43± 4.86. In addition, the drug-containing plasma content in series [1] (setting [23]) turned out to be 12.37± 2.12; in series [1] (setting [24]), 60.64± 2.86; in series [1] (setting [25]), 0; in series [1] (setting [26]) it was 0; in series [1] (setting [27]), 0; in series [1] (setting [28]), 0. In addition, the “Stability 3-Freeze-Thaw Cycles RE” value is listed as −2.47% in series [2] (setting [15]), −6.42% in series [2] (low QC (12.5 or 25.6 ng/mL)) and −5.15% in series [2] (medium QC (320 or 160 ng/mL)). The “Stability Short-Term RE” value in series [2] (setting [15]) was −2.74%; in series [2] (low QC (12.5 or 25.6 ng/mL)), −5.59%; in series [2] (medium QC (320 or 160 ng/mL)) it was −10.49%. The “Stability Long-Term RE” value is −3.86% in series [2] (setting [15]), −4.52% in series [2] (low QC (12.5 or 25.6 ng/mL)) and −9.37% in series [2] (medium QC (320 or 160 ng/mL)).
On to `O=c1cc(-c2ccccc2)oc2c(O)c(O)cc(O)c12` [Norwogonin], for which the “time … first peak” value in series [1] (setting [16]) came out at 0.167 h. For the same molecule, the “time … second peak” value in series [1] (setting [16]) was found to be 6 h. Besides, the drug-containing plasma content came to 28.17± 2.96 in series [1] (setting [17]); 94.18± 5.68 in series [1] (setting [18]); 23.48± 0.05 in series [1] (setting [19]); 13.88± 4.73 in series [1] (setting [20]); 12.42± 7.14 in series [1] (setting [21]); 0 in series [1] (setting [22]). The drug-containing plasma content in series [1] (setting [23]) is recorded as 14.29± 9.94; in series [1] (setting [24]), 113.88± 4.73; in series [1] (setting [25]), 21.94± 0.43; in series [1] (setting [26]) it was 16.07± 3.80; in series [1] (setting [27]) it was 0; in series [1] (setting [28]), 0. In addition, the entries for the “Stability 3-Freeze-Thaw Cycles RE” value in series [2] (setting [15]), in series [2] (low QC (12.5 or 25.6 ng/mL)) and in series [2] (medium QC (320 or 160 ng/mL)) were 1.97%, −6.11% and 7.06%, respectively. In addition, the “Stability Short-Term RE” value is −1.39% in series [2] (setting [15]), −2.17% in series [2] (low QC (12.5 or 25.6 ng/mL)) and 0.74% in series [2] (medium QC (320 or 160 ng/mL)). The “Stability Long-Term RE” value is 0.11% in series [2] (setting [15]), −8.96% in series [2] (low QC (12.5 or 25.6 ng/mL)) and 3.74% in series [2] (medium QC (320 or 160 ng/mL)).

The values above are taken from publication PMC10460054, “Multiplex Quantitative Analysis of 9 Compounds of Scutellaria baicalensis Georgi in the Plasma of Respiratory Syncytial Virus-Infected Mice Based on HPLC-MS/MS and Pharmacodynamic Effect Correlation Analysis” (Molecules, 2023).
